Test results published in ChEMBL document CHEMBL1201862, “PubChem BioAssay data set” (2004).
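In this assay, cells in 96-well plates receive the compound at five concentrations for 48 hours. Endpoints are linearly interpolated between the surrounding concentrations. The concentration for 50% growth inhibition is given as GI50.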 Activity calls are given as the source filed them. No stated cut-off is given here; in the data, active = GI50 up to about 1.1 µM and inactive = higher.

Key:
Experiment in all cases: NCI anticancer screen, dose series, 48 h
BT-549 = tested on: BT-549
HCT-15 = tested on: HCT-15
U-251 = tested on: U-251
Hs-578T = tested on: Hs-578T
OVCAR-3 = tested on: OVCAR-3
HOP-62 = tested on: HOP-62
SK-MEL-5 = tested on: SK-MEL-5
NCI-H226 = tested on: NCI-H226
RXF 393 = tested on: RXF 393
SR = tested on: SR
HT-29 = tested on: HT-29
SW-620 = tested on: SW-620
HOP-92 = tested on: HOP-92
A498 = tested on: A498
SF-268 = tested on: SF-268
786-0 = tested on: 786-0
SF-295 = tested on: SF-295
IGROV-1 = tested on: IGROV-1
RPMI-8226 = tested on: RPMI-8226
MOLT-4 = tested on: MOLT-4
OVCAR-5 = tested on: OVCAR-5
SN12C = tested on: SN12C
SF-539 = tested on: SF-539
UO-31 = tested on: UO-31
HCT-116 = tested on: HCT-116
LOX IMVI = tested on: LOX IMVI
OVCAR-4 = tested on: OVCAR-4
K562 = tested on: K562
DU-145 = tested on: DU-145
Malme-3M = tested on: Malme-3M
MCF7 = tested on: MCF7
ACHN = tested on: ACHN
UACC-62 = tested on: UACC-62
NCI-H460 = tested on: NCI-H460
NCI/ADR-RES = tested on: NCI/ADR-RES
MDA-MB-231 = tested on: MDA-MB-231
M14 = tested on: M14
SNB-75 = tested on: SNB-75
MDA-MB-435 = tested on: MDA-MB-435
CCRF-CEM = tested on: CCRF-CEM
COLO 205 = tested on: COLO 205
NCI-H23 = tested on: NCI-H23
KM12 = tested on: KM12
MDA-N = tested on: MDA-N
NCI-H522 = tested on: NCI-H522
SK-MEL-2 = tested on: SK-MEL-2
SK-MEL-28 = tested on: SK-MEL-28
T47D = tested on: T47D
UACC-257 = tested on: UACC-257
CAKI-1 = tested on: CAKI-1
A549 = tested on: A549
OVCAR-8 = tested on: OVCAR-8
SK-OV-3 = tested on: SK-OV-3
TK-10 = tested on: TK-10
PC-3 = tested on: PC-3
HCC 2998 = tested on: HCC 2998
HL-60 = tested on: HL-60
SNB-19 = tested on: SNB-19
EKVX = tested on: EKVX

Q: Which GI50 (BT-549) does the source give for `CN(C)CCCNc1ccnc2cc([N+](=O)[O-])ccc12` here?
A: 19.1 µM (inactive)

Q: And the GI50 (HCT-15)?
A: 12.1 µM

Q: What about the GI50 (U-251) of the same molecule?
A: 23.7 µM (inactive)

Q: And the GI50 (Hs-578T)?
A: 17.9 µM (inactive)

Q: What about the GI50 (OVCAR-3) of the same molecule?
A: 5.11 µM (inactive)

Q: And the GI50 (HOP-62)?
A: 16 µM (inactive)

Q: And the GI50 (SK-MEL-5)?
A: 11.9 µM (inactive)

Q: And the GI50 (NCI-H226)?
A: 14.9 µM (inactive)

Q: What about the GI50 (RXF 393) of the same molecule?
A: 11.2 µM (inactive)

Q: And the GI50 (SR)?
A: > 100 µM (inactive)

Q: What about the GI50 (HT-29) of the same molecule?
A: 2.68 µM (inactive)

Q: What about the GI50 (SW-620) of the same molecule?
A: 7.45 µM (inactive)

Q: And the GI50 (HOP-92)?
A: 3.38 µM (inactive)

Q: And the GI50 (A498)?
A: 17.2 µM (inactive)

Q: What about the GI50 (SF-268) of the same molecule?
A: 21 µM (inactive)

Q: What about the GI50 (786-0) of the same molecule?
A: 10.4 µM (inactive)

Q: What about the GI50 (SF-295) of the same molecule?
A: 20.4 µM (inactive)

Q: What about the GI50 (IGROV-1) of the same molecule?
A: 4.06 µM (inactive)

Q: And the GI50 (RPMI-8226)?
A: 59.2 µM (inactive)

Q: What about the GI50 (MOLT-4) of the same molecule?
A: > 100 µM (inactive)

Q: And the GI50 (OVCAR-5)?
A: 20.7 µM (inactive)

Q: What about the GI50 (SN12C) of the same molecule?
A: 17.2 µM (inactive)

Q: What about the GI50 (SF-539) of the same molecule?
A: 16.3 µM (inactive)

Q: And the GI50 (UO-31)?
A: 16.9 µM (inactive)

Q: And the GI50 (HCT-116)?
A: 6.31 µM (inactive)

Q: What about the GI50 (LOX IMVI) of the same molecule?
A: 11.4 µM (inactive)

Q: What about the GI50 (OVCAR-4) of the same molecule?
A: 3.35 µM (inactive)

Q: And the GI50 (K562)?
A: > 100 µM (inactive)

Q: What about the GI50 (DU-145) of the same molecule?
A: 27.8 µM (inactive)

Q: And the GI50 (Malme-3M)?
A: 3.44 µM (inactive)

Q: What about the GI50 (MCF7) of the same molecule?
A: 4.47 µM (inactive)

Q: What about the GI50 (ACHN) of the same molecule?
A: 19 µM (inactive)

Q: And the GI50 (UACC-62)?
A: 18.8 µM (inactive)

Q: What about the GI50 (NCI-H460) of the same molecule?
A: 4.97 µM (inactive)

Q: What about the GI50 (NCI/ADR-RES) of the same molecule?
A: 20 µM (inactive)

Q: And the GI50 (MDA-MB-231)?
A: 13.3 µM (inactive)

Q: And the GI50 (M14)?
A: 12 µM (inactive)

Q: What about the GI50 (SNB-75) of the same molecule?
A: 23.3 µM (inactive)

Q: And the GI50 (MDA-MB-435)?
A: 14.8 µM (inactive)

Q: What about the GI50 (CCRF-CEM) of the same molecule?
A: > 100 µM (inactive)

Q: What about the GI50 (COLO 205) of the same molecule?
A: 2.65 µM (inactive)

Q: And the GI50 (NCI-H23)?
A: 11.7 µM (inactive)

Q: What about the GI50 (KM12) of the same molecule?
A: 10.2 µM (inactive)

Q: What about the GI50 (MDA-N) of the same molecule?
A: 12.1 µM (inactive)

Q: What about the GI50 (NCI-H522) of the same molecule?
A: 3.6 µM (inactive)

Q: What about the GI50 (SK-MEL-2) of the same molecule?
A: 14.5 µM (inactive)

Q: What about the GI50 (SK-MEL-28) of the same molecule?
A: 36.2 µM (inactive)

Q: What about the GI50 (T47D) of the same molecule?
A: 5.98 µM (inactive)

Q: What about the GI50 (UACC-257) of the same molecule?
A: 13.9 µM (inactive)

Q: And the GI50 (CAKI-1)?
A: 26.9 µM (inactive)

Q: What about the GI50 (A549) of the same molecule?
A: 22.5 µM (inactive)

Q: What about the GI50 (OVCAR-8) of the same molecule?
A: 13.9 µM (inactive)

Q: And the GI50 (SK-OV-3)?
A: 21.2 µM (inactive)

Q: And the GI50 (TK-10)?
A: 30.7 µM (inactive)

Q: And the GI50 (PC-3)?
A: 14.1 µM (inactive)

Q: With `CC(=O)Oc1ccc2cc(-c3ccccc3OC(C)=O)c(=O)oc2c1` as the molecule, how does the GI50 (BT-549) read?
A: 4.17 µM (inactive)

Q: And the GI50 (HCT-15)?
A: 33.7 µM

Q: What about the GI50 (U-251) of the same molecule?
A: 34 µM (inactive)

Q: And the GI50 (Hs-578T)?
A: 56.5 µM (inactive)

Q: And the GI50 (OVCAR-3)?
A: 24.8 µM (inactive)

Q: And the GI50 (HOP-62)?
A: 54.1 µM (inactive)

Q: And the GI50 (NCI-H226)?
A: 27.7 µM (inactive)

Q: And the GI50 (HCC 2998)?
A: 48.1 µM (inactive)

Q: What about the GI50 (HL-60) of the same molecule?
A: 3.24 µM (inactive)

Q: And the GI50 (SR)?
A: 7.69 µM (inactive)

Q: What about the GI50 (HT-29) of the same molecule?
A: > 100 µM (inactive)

Q: And the GI50 (SW-620)?
A: 64.6 µM (inactive)

Q: And the GI50 (A498)?
A: 40.7 µM (inactive)

Q: And the GI50 (SF-268)?
A: 19.1 µM (inactive)

Q: What about the GI50 (786-0) of the same molecule?
A: 25.6 µM (inactive)

Q: What about the GI50 (SF-295) of the same molecule?
A: 50.4 µM (inactive)

Q: What about the GI50 (RPMI-8226) of the same molecule?
A: 28.8 µM (inactive)

Q: And the GI50 (MOLT-4)?
A: 6.92 µM (inactive)

Q: What about the GI50 (OVCAR-5) of the same molecule?
A: 69 µM (inactive)

Q: What about the GI50 (SN12C) of the same molecule?
A: 76 µM (inactive)

Q: What about the GI50 (SF-539) of the same molecule?
A: 59.3 µM (inactive)

Q: What about the GI50 (UO-31) of the same molecule?
A: 4.97 µM (inactive)

Q: What about the GI50 (SNB-19) of the same molecule?
A: 46.9 µM (inactive)

Q: What about the GI50 (HCT-116) of the same molecule?
A: 66.5 µM (inactive)

Q: And the GI50 (LOX IMVI)?
A: 64.9 µM (inactive)

Q: What about the GI50 (OVCAR-4) of the same molecule?
A: 18.3 µM (inactive)

Q: And the GI50 (K562)?
A: 38 µM (inactive)

Q: What about the GI50 (DU-145) of the same molecule?
A: 21.7 µM (inactive)

Q: What about the GI50 (Malme-3M) of the same molecule?
A: 34.3 µM (inactive)

Q: And the GI50 (MCF7)?
A: 89.3 µM (inactive)

Q: And the GI50 (ACHN)?
A: 30.7 µM (inactive)

Q: What about the GI50 (NCI-H460) of the same molecule?
A: 86.5 µM (inactive)

Q: What about the GI50 (NCI/ADR-RES) of the same molecule?
A: 36.5 µM (inactive)

Q: What about the GI50 (MDA-MB-231) of the same molecule?
A: 82.8 µM (inactive)

Q: And the GI50 (M14)?
A: 51.4 µM (inactive)

Q: And the GI50 (SNB-75)?
A: 11.7 µM (inactive)

Q: What about the GI50 (MDA-MB-435) of the same molecule?
A: 10.9 µM (inactive)

Q: What about the GI50 (CCRF-CEM) of the same molecule?
A: 6.15 µM (inactive)

Q: And the GI50 (COLO 205)?
A: > 100 µM (inactive)

Q: And the GI50 (NCI-H23)?
A: 31.6 µM (inactive)

Q: And the GI50 (KM12)?
A: 33.5 µM (inactive)

Q: And the GI50 (MDA-N)?
A: 49.5 µM (inactive)

Q: What about the GI50 (NCI-H522) of the same molecule?
A: 4.3 µM (inactive)

Q: And the GI50 (SK-MEL-2)?
A: 53.7 µM (inactive)

Q: What about the GI50 (SK-MEL-28) of the same molecule?
A: 38.6 µM (inactive)

Q: And the GI50 (T47D)?
A: 25.7 µM (inactive)

Q: And the GI50 (UACC-257)?
A: > 100 µM (inactive)

Q: What about the GI50 (A549) of the same molecule?
A: 32.1 µM (inactive)

Q: And the GI50 (OVCAR-8)?
A: 62.4 µM (inactive)

Q: And the GI50 (PC-3)?
A: > 100 µM (inactive)

Q: What about the GI50 (EKVX) of the same molecule?
A: 25.2 µM (inactive)
